What is called IC50 is the concentration at which inhibition is half-maximal.

The results in this text go back to patent US20260232666A1, “COMPOSITIONS AND METHODS FOR INHIBITION OF RAS” (TheRas, Inc., priority 2023, published 2026).

Experiment [1] has as its target T1, GppNHp-loaded KRAS4b (amino acids 1-169) G12C/C118S protein (Homo sapiens, UniProt P01116, C118S/G12C).
T1 construct: KRAS4b (amino acids 1-169) G12C/C118S protein; made in house
The experiment in a line: Covalent cysteine 12 modification by MALDI-TOF MS, GppNHp-loaded KRAS G12C. Format: binding. The settings on record: 15 minutes reaction time point. The procedure, abridged:
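Protein (1 μM) was incubated with compound at a 1:2.5 protein:compound ratio in 20 mM HEPES, 150 mM NaCl, 1 mM MgCl2, pH 7.3, at room temperature in the dark. After 15 min, samples were mixed into sinapinic acid matrix and analysed by linear-mode MALDI-TOF. Modification is adduct peak height over summed unmodified plus adduct heights.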

The test system of experiment [2] is pERK in NCI-H358 cells. The experiment in a line: Cell-based pERK HTRF assay (pERK inhibition in H358 cells). The settings on record: Homo sapiens, NCI-H358, 0.5 h, 30 min incubation. The procedure, abridged:
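NCI-H358 cells were seeded at 4×10^4 cells/well in RPMI/10% FBS, then treated next day for 30 min at 0.25% DMSO (9-point, 3-fold series from 75 μM). Lysates were read by HTRF (d2/Eu cryptate antibody pair, 615 nm emission) after 4–24 h at room temperature to give pERK IC50.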
On the technique in general: TR-FRET usually uses a lanthanide donor and a delayed reading to cut background.

Take `C=CC(=O)N1CC[C@@H](N(CC)c2nc(OC[C@@]34CCCN3C[C@H](F)C4)nc3c(F)c(-c4ccc(F)c5sc(N)c(C#N)c45)ccc23)[C@H]1C` [Compound 17, 4-(4-(((2R,3R)-1-acryloyl-2-methylpyrrolidin-3-yl)(ethyl)amino)-8-fluoro-2-(((2R,7aS)-2-fluorotetrahydro-1H-pyrrolizin-7a(5H)-yl)methoxy)quinazolin-7-yl)-2-amino-7-fluorobenzo[b]thiophene-3-carbonitrile]: the “GppNHp-KRAS G12C percent of modification” value in experiment [1] is given as “A (percent of modification ≥70%)”. In experiment [2], this molecule had an IC50 below 100 nM.
Consider `C=CC(=O)N1CC[C@@H](N(C)c2nc(OC[C@@]34CCCN3C[C@H](F)C4)nc3c(F)c(-c4ccc(F)c5sc(N)c(C#N)c45)c(C(F)(F)F)cc23)[C@H]1CC` [Compound 18], for which the “GppNHp-KRAS G12C percent of modification” value in experiment [1] is “B (50≤percent of modification <70%)”. Also, the IC50 in experiment [2] is below 100 nM.
On to `C=CC(=O)N1CC[C@@H](N(C)c2nc(OC[C@@]34CCCN3C[C@H](F)C4)nc3c(F)c(-c4ccc(F)c5sc(N)c(C#N)c45)c(Cl)cc23)[C@H]1CC` [Compound 19], for which the “GppNHp-KRAS G12C percent of modification” value in experiment [1] is listed as “C (10%≤percent of modification <50%)”. In experiment [2], this molecule displayed an IC50 below 100 nM.
As to `C=CC(=O)N1CC[C@@H](N(CC)c2nc(OC[C@@]34CCCN3C[C@H](F)C4)nc3c(F)c(-c4ccc(F)c5sc(N)c(C#N)c45)c(Cl)cc23)[C@H]1CC` [Compound 20], in experiment [1], the “GppNHp-KRAS G12C percent of modification” value was “C (10%≤percent of modification <50%)”. Moreover, the half-inhibitory concentration (IC50) in experiment [2] is below 100 nM.
The matching figures for `C=CC(=O)N1CC[C@@H](N(C)c2nc(OC[C@@]34CCCN3C[C@H](F)C4)nc3cc(-c4ccc(F)c5sc(N)c(C#N)c45)c(F)cc23)[C@@H]1CC` [Compound 22]: “D (percent of modification <10%)” and below 100 nM.
The matching figures for `C=CC(=O)N1CC[C@@H](N(C)c2nc(OC[C@@]34CCCN3C[C@H](F)C4)nc3c(F)c(-c4ccc(F)c5sc(N)c(C#N)c45)ccc23)[C@@H]1CC` [Compound 23]: “C (10%≤percent of modification <50%)” and below 100 nM.
For `C=CC(=O)N1CC[C@@H](N(C)c2nc(OC[C@@]34CCCN3C[C@H](F)C4)nc3cc(-c4ccc(F)c5sc(N)c(C#N)c45)c(C#N)cc23)[C@@H]1CC` [Compound 24], in that order: “C (10%≤percent of modification <50%)” and below 100 nM.
On to `C=CC(=O)N1CC[C@@H](N(CC)c2nc(OC[C@@]34CCCN3C[C@H](F)C4)nc3cc(-c4ccc(F)c5sc(N)c(C#N)c45)c(C#N)cc23)[C@H]1C` [Compound 25], for which the “GppNHp-KRAS G12C percent of modification” value in experiment [1] was “A (percent of modification ≥70%)”. In experiment [2], this molecule gave an IC50 below 100 nM.
For `C=CC(=O)N1CC[C@@H](N(C)c2nc(OC[C@@]34CCCN3C[C@H](F)C4)nc3cc(-c4ccc(F)c5sc(N)c(C#N)c45)c(C#N)cc23)[C@@H]1C` [Compound 27], the “GppNHp-KRAS G12C percent of modification” value in experiment [1] is “A (percent of modification ≥70%)”. In addition, the 50% inhibitory concentration (IC50) in experiment [2] is below 100 nM.
The matching figures for `C=CC(=O)N1CC[C@@H](N(C)c2nc(OC[C@@]34CCCN3C[C@H](F)C4)nc3cc(-c4ccc(F)c5sc(N)c(C#N)c45)c(F)cc23)[C@H]1CC` [Compound 29]: “A (percent of modification ≥70%)” and below 100 nM.
As to `C=CC(=O)N1CC[C@@H](N(C)c2nc(OC[C@@H]3CCCN3CC)nc3c(F)c(-c4ccc(F)c5sc(N)c(C#N)c45)c(C(F)(F)F)cc23)[C@@H]1C` [Compound 30], in experiment [1], the “GppNHp-KRAS G12C percent of modification” value is on record as “A (percent of modification ≥70%)”. Also, in experiment [2], the IC50 is below 100 nM.
As for `C=CC(=O)N1CC[C@@H](N(C)c2nc(OC[C@@]34CCCN3C[C@H](F)C4)nc3cc(-c4ccc(F)c5sc(N)c(C#N)c45)c(F)cc23)[C@@H]1C` [Compound 31], in experiment [1], the “GppNHp-KRAS G12C percent of modification” value was “A (percent of modification ≥70%)”. In addition, the IC50 in experiment [2] is below 100 nM.
The matching figures for `C=CC(=O)N1CC[C@@H](N(C)c2nc(OC[C@@H]3C[C@@H](F)CN3C)nc3c(F)c(-c4ccc(F)c5sc(N)c(C#N)c45)c(C(F)(F)F)cc23)[C@@H]1C` [Compound 32]: “A (percent of modification ≥70%)” and below 100 nM.
Take `C=CC(=O)N1CC[C@@H](N(C)c2nc(OC[C@@H]3C[C@@H](OC)CN3C)nc3c(F)c(-c4ccc(F)c5sc(N)c(C#N)c45)c(C(F)(F)F)cc23)[C@@H]1C` [Compound 33]: the “GppNHp-KRAS G12C percent of modification” value in experiment [1] is on record as “A (percent of modification ≥70%)”. In experiment [2], this molecule came in with an IC50 below 100 nM.
For `C=CC(=O)N1C2CCC1CN(c1nc(OC[C@@]34CCCN3C[C@H](F)C4)nc3c(F)c(-c4ccc(F)c5sc(N)c(C#N)c45)c(C(F)(F)F)cc13)C2` [Compound 34], in that order: “C (10%≤percent of modification <50%)” and below 100 nM.
For `C=CC(=O)N1C2CC1CN(c1nc(OC[C@@]34CCCN3C[C@H](F)C4)nc3c(F)c(-c4ccc(F)c5sc(N)c(C#N)c45)c(C(F)(F)F)cc13)C2` [Compound 35], the “GppNHp-KRAS G12C percent of modification” value in experiment [1] is “C (10%≤percent of modification <50%)”. In addition, the half-maximal inhibitory concentration (IC50) in experiment [2] was below 100 nM.
For the molecule `C=CC(=O)N1C[C@H]2CC[C@@H]1CN2c1nc(OC[C@@]23CCCN2C[C@H](F)C3)nc2c(F)c(-c3ccc(F)c4sc(N)c(C#N)c34)c(C(F)(F)F)cc12` [Compound 36], the “GppNHp-KRAS G12C percent of modification” value in experiment [1] was “D (percent of modification <10%)”. The IC50 in experiment [2] is 100 to 1000 nM.
With `C=CC(=O)N1CC[C@@H](N(C)c2nc(OC[C@@H]3C[C@@H](OC)CN3CC)nc3c(F)c(-c4ccc(F)c5sc(N)c(C#N)c45)c(C(F)(F)F)cc23)[C@@H]1C` [Compound 101], the “GppNHp-KRAS G12C percent of modification” value in experiment [1] is “A (percent of modification ≥70%)”. This molecule returned a 50% inhibitory concentration (IC50) in experiment [2] below 100 nM.
With `C=CC(=O)N1CC[C@@H](N(C)c2nc(OC[C@@H]3C[C@@H](OC)CN3CC)nc3c(F)c(-c4ccc(F)c5sc(N)c(C#N)c45)c(C(F)(F)F)cc23)[C@H]1C` [Compound 104], the “GppNHp-KRAS G12C percent of modification” value in experiment [1] is “A (percent of modification ≥70%)”. Moreover, the IC50 in experiment [2] was below 100 nM.
`C=CC(=O)N1CC[C@@H](N(C)c2nc(OC[C@@H]3C[C@@H](F)CN3CC)nc3c(F)c(-c4ccc(F)c5sc(N)c(C#N)c45)c(Cl)cc23)[C@@H]1C` [Compound 105]: the “GppNHp-KRAS G12C percent of modification” value in experiment [1] is recorded as “A (percent of modification ≥70%)”. Moreover, the half-inhibitory concentration (IC50) in experiment [2] is below 100 nM.
Regarding `C=CC(=O)N1CCN(c2nc(OC[C@@]34CCCN3C[C@H](F)C4)nc3c(F)c(-c4ccc(F)c5sc(N)c(C#N)c45)c(C(F)(F)F)cc23)C2CC21` (stereo partly shown) [Compound 106], in experiment [1], the “GppNHp-KRAS G12C percent of modification” value is listed as “A (percent of modification ≥70%)”. Further, the IC50 in experiment [2] was below 100 nM.
For `C=CC(=O)N1CC[C@@H](N(C)c2nc(OC[C@@H]3C[C@@H](F)CN3CC)nc3c(F)c(-c4ccc(F)c5sc(N)c(C#N)c45)c(C(F)(F)F)cc23)[C@H]1C` [Compound 107], in that order: “A (percent of modification ≥70%)” and below 100 nM.
For `C=CC(=O)N1C[C@H](N(C)c2nc(OC[C@@]34CCCN3C[C@H](F)C4)nc3c(F)c(-c4ccc(F)c5sc(N)c(C#N)c45)c(C(F)(F)F)cc23)C[C@@H]1C` [Compound 108], in that order: “A (percent of modification ≥70%)” and below 100 nM.
